Measurements reported in patent publication US11938120B1 (priority 2023, dated 2024).
≈ marks a conversion by molar mass, not a printed value.

Experiments:
[1] = system: Mycobacterium tuberculosis H37Rv (ATCC 25177); assay: Anti-tubercular activity, colorimetric Resazurin Microplate Assay (REMA), susceptible strain; type: cell-based; details: 192 h, Middlebrook 7H9 broth, 37° C., 8 days of incubation then resazurin overnight, read-out: MIC (μg/mL) Susceptible (H37Rv)

| Compound | melting point | MIC [1] |
| --- | --- | --- |
| CCOC(=O)c1cc(C(=O)c2ccccc2[N+](=O)[O-])n2c1ccc1cc(C)ccc12 [Compound 4d, Ethyl 7-methyl-1-(2-nitrobenzoyl)pyrrolo[1,2-a]quinoline-3-carboxylate] | 174 to 175 °C | 8 µg/mL (≈ 19.9 µM) |
| CCOC(=O)c1cc(C(=O)c2ccc(Br)cc2)n2c1ccc1cc(C)ccc12 [Compound 4e, Ethyl 1-(4-bromobenzoyl)-7-methylpyrrolo[1,2-a]quinoline-3-carboxylate] | 180 to 181 °C | 32 µg/mL (≈ 73.3 µM) |
| CCOC(=O)c1cc(C(=O)c2ccc(C)cc2)n2c1ccc1cc(C)ccc12 | 155 to 156 °C | – |
| CCOC(=O)c1cc(C(=O)c2ccccc2)n2c1ccc1cc(C)ccc12 | 139 to 140 °C | – |
| CCOC(=O)c1cc(C(=O)c2ccc(F)cc2)n2c1ccc1cc(C)ccc12 | 163 to 164 °C | – |
| CCOC(=O)c1cc(C(=O)c2cc(C(F)(F)F)cc(C(F)(F)F)c2)n2c1ccc1cc(C)ccc12 [Compound 4f, Ethyl 1-(3,5-bis(trifluoromethyl)benzoyl)-7-methylpyrrolo[1,2-a]quinoline-3-carboxylate] | 223 to 224 °C | 16 µg/mL (≈ 32.4 µM) |
